Assay results published in patent EP4631968A1, “PEPTIDE FOR CARTILAGE REGENERATION, AND USES THEREOF” (Caregen Co., Ltd., priority 2022, dated 2024).
Where no end group is shown, it is not given here.

What was measured:
Type in all cases: cell-based
[1] = test system: human adipose-derived mesenchymal stem cells (AD-MSC); test: Cell morphology changes, SRB staining; settings: different concentrations, after 7 days
Experimental: Additionally, for SRB staining, after suctioning the medium from the plate, 60 µL of 3.7 % formalin was added to the 96-well plate to be stained and fixed for 1 minute. After suctioning 3.7 % formalin, 70 µL of SRB staining solution (sulforhodamine B sodium salt (sigma, S9012): 0.2 g in 100 mL DDW) was added and stained. The plate was covered with aluminum foil, blocked from light, and incubated overnight at room temperature. After washing with 100 µL of 1 % acetic acid using a multi-pipette, it was dried and observed under a microscope.

[2] = test system: human adipose-derived mesenchymal stem cells (AD-MSC); test: Cytotoxicity, CCK-8 assay; settings: different concentrations, after 7 days, 450 nm
[3] = test system: human-derived chondrocytes (C28/I2, human chondrocyte cell line); test: Cytotoxicity, CCK-8 assay; settings: C28/I2 cells, different concentrations, after 3 days, 450 nm
Experimental: The cytotoxicity of Peptide-1 or Peptide-2 upon addition to human-derived chondrocytes (C28/I2, human chondrocyte cell line) was analyzed using a CCK-8 assay.
Specifically, human-derived chondrocytes were seeded in a 96-well plate at a density of 3 × 10^3 cells/well and cultured in DMEM medium (cat. 11995-065, Gibco) for 24 hours. […] Meanwhile, as a negative control group, an experimental group to which the peptide was not added was used.

**Q.** How did the “change in cell morphology in SRB staining” value [1] turn out when SSFYF [Peptide-2, SSFYF] was run?
**A.** did not show any change in cell morphology

**Q.** What about the “toxicity (CCK-8 activity)” value [2] of the same substance?
**A.** did not exhibit toxicity

**Q.** And the “toxicity (CCK-8 activity)” value [3]?
**A.** did not exhibit toxicity

**Q.** For “KVSYAAEKNRKNY [Peptide-1, KVSYAAEKNRKNY]”, which “change in cell morphology in SRB staining” value [1] is on record?
**A.** did not show any change in cell morphology

**Q.** What about the “toxicity (CCK-8 activity)” value [2] of the same substance?
**A.** did not exhibit toxicity

**Q.** What about the “toxicity (CCK-8 activity)” value [3] of the same substance?
**A.** did not exhibit toxicity
